Measured values as given in patent EP2346328B1, “USE OF COSTIC ACID OR EXTRACTS OF DITTRICHIA VISCOSA AGAINST VARROA DESTRUCTOR” (Katerinopoulos, E. Haralambos, priority 2008, dated 2009).

Assays:
[1] = system: varroa; test: Field tests on bee populations: count of dead varroa after spraying; format: in vivo, Varroa destructor; settings: after ten days; commercial acaricides; sprayed directly on the bees (100 mL per group, oxalic acid 70 mL)
Description: Example 5. Field Tests on bee populations. Field test were conducted using 40 bees on each trial at various locations on the island of Crete such as the Lassithi Plateau and the Messara Plains. In the field tests, Group B' extract was used in a solution of 1 g of this extract in 1 ml ethanol that was further diluted with water to a total volume of 1 L. A second solution was prepared as described above, using 2 g of Group B' mixture. For comparison purposes, each bee population was divided in […] groups. Two of these groups were treated with commercial acaricides A fifth, control group, was sprayed with deionized water. As known acaricide preparations were used a) BAYVAROL (active ingredient: Flumethrine) and b) a 4% solution of oxalic acid in 50% sugar solution. The total volume of solutions that were sprayed directly on the bees was 100 mL per group. In the case of the oxalic acid solution, the volume was 70 mL. Dead varroa was collected on a sheet of paper covered with Vaseline and sunflower oil. After ten days, the number of dead varroa was counted. Considering the number of dead varroa in the oxalic acid experiment as 100%, the respective numbers were 60% for either extract preparation, 55% for BAYVAROL and 8% for the control.

[2] = Cytotoxicity assay in human cells (WST-1); format: cell-based; settings: HUVEC, 24 h exposure, WST-1 absorbance after 4h and 24h, read-out: concentrations at which not cytotoxic
Description: Example 4.Cytotoxicity assays in human cells. Cytotoxicity of costic acid was measured in human umbilical vein endothelial cells (HUVEC), using the Cell Proliferation Reagent WST-1 (Cat. No. 13396300, Roche). The assay was performed according to the instructions protocol. Cells (7500 per well) were exposed to different concentrations of costic acid for 24 h before adding the WST-1 reagent. After 4h and again after 24h the absorbance was measured using an Optimax UV/VIS spectrometer (wavelengths: 440nm and 650nm). Costic acid was not cytotoxic at concentrations up to 230 micromolar.

[3] = system: V. destructor; test: In vivo vial experiments with V. destructor: mite mortality on exposure to treated filter paper; set-up: species or system Varroa destructor
Description: In vivo Experiments with V. destructor. The mites (V. destructor) were collected from colonies of A. mellifera. For mite collection two different methods were used: The first method involved removal of the mites from infected adult bees using a soft brush with the help of a stereoscope. In method b) infected adult honeybees were transferred directly from bee frames into a wire-screen cylinder. Then the cylinder was placed inside a second Plexiglas cylinder and CO2 was released for 5 min with a flow rate of 5 l/min causing anaesthesia to the mites (as well as to the bees). The whole apparatus was then shaken several times to separate the mites from the bees. In a few minutes they had recovered from the effect of the anaesthesia.^39
Using a stereoscope binocular set varroa was placed in 20 mL glass vials. Stock solutions of the extraction materials were prepared in acetone in 10 mg/mL concentrations. In each experiment 20, 60, or 100 microliter aliquots of the stock solution were placed on filter paper adjusted to the cups of 20 ml vials, each containing five living mites. Acetone was used in the control experiments which were performed in five replicates. In both cases the solvent was allowed to evaporate before covering the vials. The vials were kept in an incubator at 37 C. Mortality of mites was recorded under a stereoscope binocular set after 5, 8, 12, and 19 hours.

SMILES | number of dead varroa, oxalic acid experiment as 100% [1] [%] | MNTC at 24 h [2] [µM] | optimal concentration of the stock solution ([3]; 10 mg/mL stock solution in acetone, higher concentrations did not enhance activity) [microliter per vial] | percent mortality of varroa ([3]; Fig. 1, 20 or 60 or 100 microliters of 10mg/mL acetone solutions) | time after application of the largest activity difference between costic acid and total extract ([3]; Fig. 2, activity as a function of time of application) [h] | acaricidal activity ([3]; in vivo vial experiments, fractions and isolated components of D. viscosa extract)
O=C(O)C(=O)O [oxalic acid] | 100 |  |  |  |  | 
C=C(C(=O)O)C1CCC2(C)CCCC(=C)C2C1 (stereo not drawn) [costic acid] |  | ≥ 230 | 60 | increases drastically | 8 | acaricidal activity rested in costic acid
